Measurements from the supplement of paper PMC10307832.

Columns and labels:
Assay in all cases: relative viability (nuclei count vs DMSO), 5 days (fraction); higher = more cells survive
OSI-027 + Vorinostat = compound: COc1cccc2cc(-c3nc([C@H]4CC[C@H](C(=O)O)CC4)n4ncnc(N)c34)[nH]c12 [OSI-027] + O=C(CCCCCCC(=O)Nc1ccccc1)NO [Vorinostat] (partner 1 µM)
Summary of the method: (§1)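 Nuclei were stained with Hoechst during a one-step fixation (final 0.05% Triton X-100, 1% formaldehyde, 1 ug/ml Hoechst) carried out 5 days after dosing, then counted on 4× images. The cells, lung cancer lines in 1536-well plates, had been dosed by pin tool the day after seeding with one drug alone or a fixed anchor-drug dose plus five library-drug doses (not always all listed) in √10 steps. Relative viability is the nuclei count in treated wells divided by that in vehicle wells, and each value is the median of duplicate plates.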

Vemurafenib + Dasatinib = compound: CCCS(=O)(=O)Nc1ccc(F)c(C(=O)c2c[nH]c3ncc(-c4ccc(Cl)cc4)cc23)c1F [Vemurafenib] + Cc1nc(Nc2ncc(C(=O)Nc3c(C)cccc3Cl)s2)cc(N2CCN(CCO)CC2)n1 [Dasatinib] (partner 0.075 µM)
Summary of the method: as §1

OSI-027 + Crizotinib = compound: COc1cccc2cc(-c3nc([C@H]4CC[C@H](C(=O)O)CC4)n4ncnc(N)c34)[nH]c12 [OSI-027] + C[C@@H](Oc1cc(-c2cnn(C3CCNCC3)c2)cnc1N)c1c(Cl)ccc(F)c1Cl [Crizotinib] (partner 1 µM)
Summary of the method: as §1

Alpelisib + Phenformin = compound: Cc1nc(NC(=O)N2CCC[C@H]2C(N)=O)sc1-c1ccnc(C(C)(C)C(F)(F)F)c1 [Alpelisib] + N=C(N)NC(=N)NCCc1ccccc1 [Phenformin] (partner 250 µM)
Summary of the method: as §1

## NCI-H1993
OSI-027 + Vorinostat; first compound 0.01 µM
  relative viability: 0.86
OSI-027 + Vorinostat; first compound 0.03162 µM
  relative viability: 0.967
OSI-027 + Vorinostat; first compound 0.1 µM
  relative viability: 0.717
OSI-027 + Vorinostat; first compound 0.3162 µM
  relative viability: 0.474
OSI-027 + Vorinostat; first compound 1 µM
  relative viability: 0.449
Vemurafenib + Dasatinib; first compound 0.03162 µM
  relative viability: 0.298
Vemurafenib + Dasatinib; first compound 0.3162 µM
  relative viability: 0.694
Vemurafenib + Dasatinib; first compound 1 µM
  relative viability: 0.621
OSI-027 + Crizotinib; first compound 0.01 µM
  relative viability: 0.783
OSI-027 + Crizotinib; first compound 0.03162 µM
  relative viability: 0.77
OSI-027 + Crizotinib; first compound 0.1 µM
  relative viability: 0.678
OSI-027 + Crizotinib; first compound 0.3162 µM
  relative viability: 0.565
OSI-027 + Crizotinib; first compound 1 µM
  relative viability: 0.56
Alpelisib + Phenformin; first compound 0.04 µM
  relative viability: 0.501
Alpelisib + Phenformin; first compound 0.1265 µM
  relative viability: 0.534
Alpelisib + Phenformin; first compound 0.4 µM
  relative viability: 0.443
Alpelisib + Phenformin; first compound 1.265 µM
  relative viability: 0.539
Alpelisib + Phenformin; first compound 4 µM
  relative viability: 0.507

## NCI-H1437
OSI-027 + Vorinostat; first compound 0.01 µM
  relative viability: 0.859
OSI-027 + Vorinostat; first compound 0.03162 µM
  relative viability: 0.767
OSI-027 + Vorinostat; first compound 0.1 µM
  relative viability: 0.861
OSI-027 + Vorinostat; first compound 0.3162 µM
  relative viability: 0.848
OSI-027 + Vorinostat; first compound 1 µM
  relative viability: 0.521
Vemurafenib + Dasatinib; first compound 0.03162 µM
  relative viability: 0.338
Vemurafenib + Dasatinib; first compound 0.1 µM
  relative viability: 0.336
Vemurafenib + Dasatinib; first compound 0.3162 µM
  relative viability: 0.296
Vemurafenib + Dasatinib; first compound 1 µM
  relative viability: 0.325
OSI-027 + Crizotinib; first compound 0.01 µM
  relative viability: 0.987
OSI-027 + Crizotinib; first compound 0.03162 µM
  relative viability: 0.966
OSI-027 + Crizotinib; first compound 0.1 µM
  relative viability: 0.995
OSI-027 + Crizotinib; first compound 0.3162 µM
  relative viability: 0.944
OSI-027 + Crizotinib; first compound 1 µM
  relative viability: 0.441
Alpelisib + Phenformin; first compound 0.04 µM
  relative viability: 0.326
Alpelisib + Phenformin; first compound 0.1265 µM
  relative viability: 0.296
Alpelisib + Phenformin; first compound 0.4 µM
  relative viability: 0.291
Alpelisib + Phenformin; first compound 1.265 µM
  relative viability: 0.232
Alpelisib + Phenformin; first compound 4 µM
  relative viability: 0.215

## NCI-H647
OSI-027 + Vorinostat; first compound 0.01 µM
  relative viability: 0.656
OSI-027 + Vorinostat; first compound 0.03162 µM
  relative viability: 0.468
OSI-027 + Vorinostat; first compound 0.1 µM
  relative viability: 0.385
OSI-027 + Vorinostat; first compound 0.3162 µM
  relative viability: 0.363
OSI-027 + Vorinostat; first compound 1 µM
  relative viability: 0.36
Vemurafenib + Dasatinib; first compound 0.03162 µM
  relative viability: 0.16
Vemurafenib + Dasatinib; first compound 0.1 µM
  relative viability: 0.198
Vemurafenib + Dasatinib; first compound 0.3162 µM
  relative viability: 0.0963
Vemurafenib + Dasatinib; first compound 1 µM
  relative viability: 0.188
OSI-027 + Crizotinib; first compound 0.01 µM
  relative viability: 1.12
OSI-027 + Crizotinib; first compound 0.03162 µM
  relative viability: 1.2
OSI-027 + Crizotinib; first compound 0.1 µM
  relative viability: 1.07
OSI-027 + Crizotinib; first compound 0.3162 µM
  relative viability: 0.701
OSI-027 + Crizotinib; first compound 1 µM
  relative viability: 0.456
Alpelisib + Phenformin; first compound 0.04 µM
  relative viability: 0.396
Alpelisib + Phenformin; first compound 0.1265 µM
  relative viability: 0.421
Alpelisib + Phenformin; first compound 0.4 µM
  relative viability: 0.53
Alpelisib + Phenformin; first compound 1.265 µM
  relative viability: 0.378
Alpelisib + Phenformin; first compound 4 µM
  relative viability: 0.359

## HCC-78
OSI-027 + Vorinostat; first compound 0.01 µM
  relative viability: 0.477
OSI-027 + Vorinostat; first compound 0.03162 µM
  relative viability: 0.326
OSI-027 + Vorinostat; first compound 0.1 µM
  relative viability: 0.384
OSI-027 + Vorinostat; first compound 0.3162 µM
  relative viability: 0.329
OSI-027 + Vorinostat; first compound 1 µM
  relative viability: 0.268
Vemurafenib + Dasatinib; first compound 0.03162 µM
  relative viability: 0.359
Vemurafenib + Dasatinib; first compound 0.1 µM
  relative viability: 0.329
Vemurafenib + Dasatinib; first compound 0.3162 µM
  relative viability: 0.593
Vemurafenib + Dasatinib; first compound 1 µM
  relative viability: 0.37
OSI-027 + Crizotinib; first compound 0.01 µM
  relative viability: 0.289
OSI-027 + Crizotinib; first compound 0.03162 µM
  relative viability: 0.322
OSI-027 + Crizotinib; first compound 0.1 µM
  relative viability: 0.33
OSI-027 + Crizotinib; first compound 0.3162 µM
  relative viability: 0.274
OSI-027 + Crizotinib; first compound 1 µM
  relative viability: 0.185
Alpelisib + Phenformin; first compound 0.04 µM
  relative viability: 0.708
Alpelisib + Phenformin; first compound 0.1265 µM
  relative viability: 0.54
Alpelisib + Phenformin; first compound 0.4 µM
  relative viability: 0.708
Alpelisib + Phenformin; first compound 1.265 µM
  relative viability: 0.471
Alpelisib + Phenformin; first compound 4 µM
  relative viability: 0.428

## ABC-1
OSI-027 + Vorinostat; first compound 0.01 µM
  relative viability: 0.764
OSI-027 + Vorinostat; first compound 0.03162 µM
  relative viability: 1.19
OSI-027 + Vorinostat; first compound 0.1 µM
  relative viability: 0.66
OSI-027 + Vorinostat; first compound 0.3162 µM
  relative viability: 0.67
OSI-027 + Vorinostat; first compound 1 µM
  relative viability: 0.758
Vemurafenib + Dasatinib; first compound 0.1 µM
  relative viability: 0.563
Vemurafenib + Dasatinib; first compound 1 µM
  relative viability: 0.567
OSI-027 + Crizotinib; first compound 0.01 µM
  relative viability: 1.23
OSI-027 + Crizotinib; first compound 0.03162 µM
  relative viability: 0.881
OSI-027 + Crizotinib; first compound 0.1 µM
  relative viability: 1.1
OSI-027 + Crizotinib; first compound 0.3162 µM
  relative viability: 0.957
OSI-027 + Crizotinib; first compound 1 µM
  relative viability: 0.47
Alpelisib + Phenformin; first compound 0.04 µM
  relative viability: 0.256
Alpelisib + Phenformin; first compound 0.1265 µM
  relative viability: 0.252
Alpelisib + Phenformin; first compound 0.4 µM
  relative viability: 0.211
Alpelisib + Phenformin; first compound 1.265 µM
  relative viability: 0.233
Alpelisib + Phenformin; first compound 4 µM
  relative viability: 0.222
